{"source": "patent US8729280B2", "about": "“Five crystal forms, methods of preparation, pharmaceutical compositions and applications of XLF-III-43” (Institute of Mataria Medica, Chinese Academy of Medical …, priority 2008, dated 2014)", "key": {"[1]": {"system": "acute renal function injury in mice induced by Cisplatin", "assay": "Effects of different crystalline forms of XLF-III-43 on acute renal function injury in mice induced by Cisplatin (serum BUN and Scr)", "format": "in vivo, Male Kunming mice", "details": "for BUN / BUN reduction (%) / Scr / Scr reduction (%): dose 25.0 × 3 mg/kg", "method": "Objective: To observe the effects of different crystal forms of XLF-III-43 on acute renal function injury in mice induced by Cisplatin\nReagents: crystalline form I, II and V of XLF-III-43, all were prepared into suspensions with 0.5% sodium carboxymethylcellulose. Positive control: Losartan potassium, ATIRA Hangzhou Merck Sharp & Dohme Pharmaceutics Company, lot number: S1241. Crude drug of Cisplatin (DDP): Supplied by Shandong Qilu Pharmaceutics Company.\nAnimal: Male Kunming mice weighing 16 to 22 g were purchased from Institute of Laboratory Animal Sciences, Chinese Academy of Medical Sciences (Type II, Certificate No: SCXK-Jing 2000-0006). All the mice were feeded in standard breeding boxes, 5 per box, kept these boxes dry and clean, ventilate and sterilize animal room at fixed time, lightening time: 8:00-20:00, room temperature: 20-26° C., humidity: 40-70%, forage: clean breeding forage, bought from Animal Center of Academy of Military Medical Sciences, Certificate No: SCXX-(army) 2002-001.\nSerum biochemistry kit: Beijing Beihua Refined Chemical Limited-liability Company\nApparatus: WELLSCAN MK3 Scanner, Germent SIGMA3K 15 Centrifuge, TGL-16G Freezing Centrifuge, Shanghai Anting Scientific Instrument Factory, Votex, American Bohemia N.Y Company.\nAnimal grouping: According to body weights, male Kunming mice weighing 18 to 22 grams were randomly divided into […] groups: control group, Cisplatin group (model group), Losartan potassium group, groups of three crystal forms of XLF-III-43, n=8 for each group.\nModeling and administrating: XLF-III-43 were dissolved in 0.5% sodium carboxymethylcellulose, Losartan potassium and Cisplatin were dissolved in physiological saline. Since two days before giving Cisplatin by peritoneal injection, Losartan potassium group and groups of three crystal forms of XLF-III-43 were intraperitoneally administered respectively. Control animals received an equal volume of physiological saline.\nSerum parameters detecting: Blood samples were collected from the orbital venous plexus at day 3, 5, and 7 after injecting Cisplatin. Serum BUN and Scr were detected by serum biochemistry kit."}, "[2]": {"assay": "Influences of different crystalline forms on blood drug levels in rats (pharmacokinetic study, HPLC of plasma)", "format": "in vivo", "method": "1. Crystal Samples: crystalline form II and V of XLF-III-43, dispersant agent of crystalline form II (obtained by comminuting crystalline form II and V of XLF-III-43).\n2. Methodology study of detecting blood drug level\n(1) Experimental Conditions:\nHPLC: waters 2690 chromatography system, 2487 UV detector, Milnicousamidem 32 chromatography management system. Column: 4.6×250 mm Spherisorb C18 5 μm; flow rate: 1.0 ml/min; column temperature: 25° C.; detection wavelength: 330 nm. After treated by solid phase extraction, plasma samples were directly injected and analyzed.\n(4) Recovery experiment: extraction recoveries (greater than 75%) meet the requests that SFDA issued on methods of pharmacokinetic study.\n(5) Sensitivity: minimum detectable amount was 2 ng/ml, the minimum limit of quantification was 5 ng/ml."}, "[3]": {"details": "3 days after injecting Cisplatin"}, "[4]": {"details": "5 days after injecting Cisplatin"}, "[5]": {"details": "7 days after injecting Cisplatin"}, "[6]": {"details": "one-time orally administered at 30 mg/kg, preliminary pharmacokinetic"}}}
{"molecule": "CCCCc1nc(Cl)c(CO)n1Cc1ccc(-c2ccccc2-c2nn[nH]n2)cc1", "note": "[Losartan]", "values": [{"measurement": "BUN", "setting": "[1]; [3]", "result": "30.58 ± 4.19", "unit": "mg/dL"}, {"measurement": "BUN reduction (%)", "setting": "[1]; [3]", "result": "−1.9", "unit": "%"}, {"measurement": "Scr", "setting": "[1]; [3]", "result": "1.41 ± 1.00", "unit": "mg/dL"}, {"measurement": "Scr reduction (%)", "setting": "[1]; [3]", "result": 22.4, "unit": "%"}, {"measurement": "BUN", "setting": "[1]; [4]", "result": "31.75 ± 9.32", "unit": "mg/dL"}, {"measurement": "BUN reduction (%)", "setting": "[1]; [4]", "result": 24.6, "unit": "%"}, {"measurement": "Scr", "setting": "[1]; [4]", "result": "1.16 ± 0.48", "unit": "mg/dL"}, {"measurement": "Scr reduction (%)", "setting": "[1]; [4]", "result": 39.3, "unit": "%"}, {"measurement": "BUN", "setting": "[1]; [5]", "result": "30.32 ± 2.89", "unit": "mg/dL"}, {"measurement": "BUN reduction (%)", "setting": "[1]; [5]", "result": 23.8, "unit": "%"}, {"measurement": "Scr", "setting": "[1]; [5]", "result": "1.74 ± 0.31", "unit": "mg/dL"}, {"measurement": "Scr reduction (%)", "setting": "[1]; [5]", "result": 34.7, "unit": "%"}]}
{"molecule": "3-(3′-carboxy-4′-hydroxy-anilino-carbo-)-6-nitro-7-hydroxy-8-methyl-coumarin [crystalline form V of XLF-III-43]", "values": [{"measurement": "blood/plasma concentration", "setting": "[2]; oral, FIG. 22, within a certain period of time", "result": "higher blood concentration than crystalline form II of XLF-III-43"}, {"measurement": "dose-effect relationship of renal function protective effect", "setting": "[1]; Cisplatin model", "result": "good dose-effect relationship"}, {"measurement": "renal function protective effect (serum Scr and BUN)", "setting": "[1]; Cisplatin model, compared among treated groups (crystalline form I, II, V, Losartan potassium)", "result": "best renal function protective effect"}]}
{"molecule": "3-(3′-carboxy-4′-hydroxy-anilino-carbo-)-6-nitro-7-hydroxy-8-methyl-coumarin [XLF-III-43]", "values": [{"measurement": "time within which it could be detected in plasma", "setting": "[2]; one-time orally administered at 30 mg/kg", "result": "≤ 36", "unit": "h"}, {"measurement": "detection in plasma at 48 h", "setting": "[2]; one-time orally administered at 30 mg/kg, 48 h", "result": "could not be detected"}, {"measurement": "maximum plasma concentration Cmax", "setting": "[2]; [6]", "result": 2, "unit": "µg/mL"}, {"measurement": "peak time (Tmax)", "setting": "[2]; [6]", "result": 30, "unit": "min"}]}
